Laboratory results published in patent publication US11192899B2 (MERCK PATENT GMBH, priority 2017, dated 2021).
pIC50: −log10 of the molar value. Read-outs that look alike come from different tables or passages of the source.

How the values were obtained:
Type in all cases: cell-based
[1] = biological target: T1, human A2A receptor (Homo sapiens, UniProt P29274); assay: cAMP HTRF functional assay, recombinant HEK293 cells expressing human A2A receptor, agonist NECA
T1 construct: expressed in transfected cells; host or cells: HEK293
Description: (§1) The functional activities of human A2A, A2B, A1 and A3 receptors were determined by quantification of cAMP, being the second messenger for adenosine receptors.
(§2) Obtained raw data were normalized against the inhibitor control and the neural control (DMSO) and the normalized data were fitted using GeneData software.

[2] = biological target: T2, human A1 receptor (Homo sapiens, UniProt P30542); assay: cAMP HTRF functional assay, recombinant CHO cells expressing human A1 receptor, forskolin and agonist CPA
T2 construct: expressed in transfected cells; host or cells: CHO
T2 sequence (P30542 1-326): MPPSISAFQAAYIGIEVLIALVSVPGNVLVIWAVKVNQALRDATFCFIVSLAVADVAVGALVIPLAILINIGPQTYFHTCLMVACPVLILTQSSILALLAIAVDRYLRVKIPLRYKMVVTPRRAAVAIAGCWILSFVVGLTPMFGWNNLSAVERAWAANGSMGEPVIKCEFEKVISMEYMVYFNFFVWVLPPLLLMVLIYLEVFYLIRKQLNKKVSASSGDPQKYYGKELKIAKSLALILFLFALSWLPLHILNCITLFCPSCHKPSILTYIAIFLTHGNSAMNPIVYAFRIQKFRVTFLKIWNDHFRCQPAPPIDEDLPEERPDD
Description: as §1
For human A1 and A3 receptors, recombinant CHO cells, expressing either A1 or A3-receptor, were used. As both receptors couple to Gi proteins, the assay protocol was adapted:
Cells were seeded into 384-well plates, forskolin, test compounds and agonists (CPA for A1- and IB-MECA for A3-receptor) were added. After 30 min incubation, HTRF reagents (cAMP dynamic 2, Cis Bio) were added and the cellular cAMP levels were determined using the ENVISION (Perkin Elmer) plate reader.
as §2

[3] = biological target: T3, A2B receptors (Homo sapiens, UniProt P29275); assay: cAMP HTRF functional assay, recombinant HEK293 cells expressing human A2B receptor, agonist NECA; design: expressed in transfected cells; host or cells: HEK293
T3 sequence (P29275 1-332): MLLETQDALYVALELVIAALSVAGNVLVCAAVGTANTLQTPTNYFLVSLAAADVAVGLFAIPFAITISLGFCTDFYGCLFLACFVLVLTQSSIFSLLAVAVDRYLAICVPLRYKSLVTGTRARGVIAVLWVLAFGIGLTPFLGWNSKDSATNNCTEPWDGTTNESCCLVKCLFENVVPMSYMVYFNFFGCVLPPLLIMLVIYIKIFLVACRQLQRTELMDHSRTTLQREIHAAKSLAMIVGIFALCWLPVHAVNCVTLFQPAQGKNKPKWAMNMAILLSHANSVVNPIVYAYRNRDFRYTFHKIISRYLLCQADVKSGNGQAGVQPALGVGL
Description: as §1, §2

T1 sequence (P29274 whole entry): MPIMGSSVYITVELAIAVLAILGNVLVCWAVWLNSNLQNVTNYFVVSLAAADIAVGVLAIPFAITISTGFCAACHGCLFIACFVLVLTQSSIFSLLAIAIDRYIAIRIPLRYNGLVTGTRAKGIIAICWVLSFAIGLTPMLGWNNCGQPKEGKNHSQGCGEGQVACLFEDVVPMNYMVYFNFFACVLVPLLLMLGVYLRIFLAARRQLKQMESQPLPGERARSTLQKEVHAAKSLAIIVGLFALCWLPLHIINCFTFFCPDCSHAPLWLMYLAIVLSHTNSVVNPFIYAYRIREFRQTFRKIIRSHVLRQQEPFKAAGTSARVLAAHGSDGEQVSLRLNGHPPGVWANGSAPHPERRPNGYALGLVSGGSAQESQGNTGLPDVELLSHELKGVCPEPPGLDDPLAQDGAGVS

Compound | pIC50 [1] | pIC50 [2] | pIC50 [3] | pIC50 ([1]; recombinant HEK293 cells, cAMP, agonist NECA)
4-Hydroxy-4-methyl-piperidine-1-carboxylic acid (5-methoxy-8-phenyl-pyrido[3,4-b]pyrazin-3-yl)-amide [compound 15] |  |  |  | > 7.00
COc1ccc(-c2cccc(F)c2)c2ncc(NC(=O)N3CCC(C)(O)CC3)nc12 [compound 62] | > 7.00 | > 6.00 | < 6.00 | 
COc1ccc(C2CCOCC2)c2ncc(NC(=O)c3cnc(C)s3)nc12 [compound 78] | > 8.00 | < 6.00 | > 6.00 | 
C#CCC1(O)CCN(C(=O)Nc2cnc3c(C4CCOCC4)cnc(OC)c3n2)CC1 [compound 103, 4-Hydroxy-4-prop-2-ynyl-piperidine-1-carboxylic acid [5-methoxy-8-(tetrahydro-pyran-4-yl)-pyrido[3,4-b]pyrazin-3-yl]-amide] | > 8.00 | < 6.00 | < 6.00 | 
CCCCc1ccc(OC)c2nc(NC(=O)N3CCC(C)(O)CC3)cnc12 [compound 108, N-(5-butyl-8-methoxyquinoxalin-2-yl)-4-hydroxy-4-methylpiperidine-1-carboxamide] | > 7.00 | < 6.00 | < 6.00 | 
COc1ccc(C2=CCOCC2)c2ncc(NC(=O)N3CCC(C)(O)CC3)nc12 [compound 109, N-[5-(3,6-dihydro-2H-pyran-4-yl)-8-methoxyquinoxalin-2-yl]-4-hydroxy-4-methylpiperidine-1-carboxamide] | > 8.00 | > 6.00 | < 6.00 | 
COc1ccc(-c2cccnc2)c2nc(NC(=O)N3CCC(C)(O)CC3)cnc12 [compound 112, 4-hydroxy-N-[5-methoxy-8-(pyridin-3-yl)quinoxalin-2-yl]-4-methylpiperidine-1-carboxamide] | > 7.00 | < 6.00 |  | 
COc1ccc(-c2cnn(C3CN(C(=O)OC(C)(C)C)C3)c2)c2ncc(NC(=O)N3CCC(C)(O)CC3)nc12 [compound 116, tert-butyl 3-(4-{2-[(4-hydroxy-4-methylpiperidine-1-carbonyl)amino]-8-methoxyquinoxalin-5-yl}-1H-pyrazol-1-yl)azetidine-1-carboxylate] | > 7.00 | > 6.00 | < 6.00 | 
COCCOc1cccc(-c2ccc(OC)c3nc(NC(=O)N4CCC(C)(O)CC4)cnc23)c1 [compound 117, 4-hydroxy-N-{8-methoxy-5-[3-(2-methoxyethoxy)phenyl]quinoxalin-2-yl}-4-methylpiperidine-1-carboxamide] | > 7.00 | < 6.00 | < 6.00 | 
COCCOCCn1cc(-c2ccc(OC)c3nc(NC(=O)N4CCC(C)(O)CC4)cnc23)cn1 [compound 119, 4-hydroxy-N-(8-methoxy-5-{1-[2-(2-methoxyethoxy)ethyl]-1H-pyrazol-4-yl}quinoxalin-2-yl)-4-methylpiperidine-1-carboxamide] | > 7.00 | < 6.00 | < 6.00 | 
COc1ccc(-c2cccc(F)c2F)c2ncc(NC(=O)c3cnc(C)o3)nc12 [compound 125, N-[5-(2,3-difluorophenyl)-8-methoxyquinoxalin-2-yl]-2-methyl-1,3-oxazole-5-carboxamide] | > 7.00 | > 6.00 |  | 
COc1ccc(C2CCOCC2)c2ncc(NC(=O)c3cnc(C)o3)nc12 [compound 130, N-[8-methoxy-5-(oxan-4-yl)quinoxalin-2-yl]-2-methyl-1,3-oxazole-5-carboxamide] | > 8.00 | < 6.00 | > 7.00 | 
COc1ccc(C2=CCOCC2)c2ncc(NC(=O)C3(N)CC3)nc12 [compound 137, 1-amino-N-[5-(3,6-dihydro-2H-pyran-4-yl)-8-methoxyquinoxalin-2-yl]cyclopropane-1-carboxamide] | > 8.00 | > 6.00 | < 6.00 | 
COc1ccc(C2=CCOCC2)c2ncc(NC(=O)c3nnc(C)s3)nc12 [compound 146, N-[5-(3,6-dihydro-2H-pyran-4-yl)-8-methoxyquinoxalin-2-yl]-5-methyl-1,3,4-thiadiazole-2-carboxamide] | > 7.00 | < 6.00 |  | 

More lines, main results first:

pIC50 [1] | pIC50 [2] | pIC50 [3] | Compound | pIC50 ([1]; recombinant HEK293 cells, cAMP, agonist NECA)
> 7.00 | < 6.00 |  | COc1ccc(C2CCOCC2)c2ncc(NC(=O)N3CC4(C3)CS(=O)(=O)C4)nc12 [compound 18] | 
> 8.00 | < 6.00 | < 6.00 | COc1ccc(C2CCOCC2)c2ncc(NC(=O)c3cnn(C)c3)nc12 [compound 68] | 
> 8.00 |  |  | COc1ncc(C2CCOCC2)c2ncc(NC(=O)N3CCC(C)(CO)CC3)nc12 [compound 104, 4-Hydroxymethyl-4-methyl-piperidine-1-carboxylic acid [5-methoxy-8-(tetrahydro-pyran-4-yl)-pyrido[3,4-b]pyrazin-3-yl]-amide] | 
> 7.00 | > 6.00 | < 6.00 | COc1ccc(-c2cnn(Cc3ccccn3)c2)c2ncc(NC(=O)N3CCC(C)(O)CC3)nc12 [compound 114, 4-hydroxy-N-(8-methoxy-5-{1-[(pyridin-2-yl)methyl]-1H-pyrazol-4-yl}quinoxalin-2-yl)-4-methylpiperidine-1-carboxamide] | 
> 7.00 |  |  | CNC(=O)c1cc(-c2ccc(OC)c3nc(NC(=O)N4CCC(C)(O)CC4)cnc23)ccn1 [compound 115, 4-{2-[(4-hydroxy-4-methylpiperidine-1-carbonyl)amino]-8-methoxyquinoxalin-5-yl}-N-methylpyridine-2-carboxamide] | 
> 8.00 |  | > 7.00 | COc1ccc(-c2ccccc2F)c2ncc(NC(=O)c3cnc(C)o3)nc12 [compound 129, N-[5-(2-fluorophenyl)-8-methoxyquinoxalin-2-yl]-2-methyl-1,3-oxazole-5-carboxamide] | 
> 8.00 | > 6.00 | > 7.00 | COc1ccc(C2=CCOCC2)c2ncc(NC(=O)c3cnc(C)o3)nc12 [compound 132, N-[5-(3,6-dihydro-2H-pyran-4-yl)-8-methoxyquinoxalin-2-yl]-2-methyl-1,3-oxazole-5-carboxamide] | 
> 8.00 | > 7.00 | > 7.00 | COc1ccc(C2=CCOCC2)c2ncc(NC(=O)c3cnn(C)c3)nc12 [compound 135, N-[5-(3,6-dihydro-2H-pyran-4-yl)-8-methoxyquinoxalin-2-yl]-1-methyl-1H-pyrazole-4-carboxamide] | 
> 7.00 | < 6.00 |  | COc1ccc(C2=CCOCC2)c2ncc(NC(=O)C3(C(=O)N(C)C)CC3)nc12 [compound 144, N′1-[5-(3,6-dihydro-2H-pyran-4-yl)-8-methoxyquinoxalin-2-yl]-N1,N1-dimethylcyclopropane-1,1-dicarboxamide] | 
> 7.00 | < 6.00 |  | COc1ccc(C2=CCOCC2)c2ncc(NC(=O)C3(CN(C)C)CC3)nc12 [compound 145, N-[5-(3,6-dihydro-2H-pyran-4-yl)-8-methoxyquinoxalin-2-yl]-1-[(dimethylamino)methyl]cyclopropane-1-carboxamide] | 
> 7.00 | < 6.00 |  | COc1ccc(-c2cnn(C(F)F)c2)c2ncc(NC(=O)N3CCC(C)(O)CC3)nc12 [compound 158, N-{5-[1-(difluoromethyl)-1H-pyrazol-4-yl]-8-methoxyquinoxalin-2-yl}-4-hydroxy-4-methylpiperidine-1-carboxamide] | 
> 7.00 | < 6.00 |  | COc1ccc(N2CCCOCC2)c2ncc(NC(=O)C3CC3)nc12 [compound 161, N-[8-methoxy-5-(1,4-oxazepan-4-yl)quinoxalin-2-yl]cyclopropanecarboxamide] | 
